{
  "source": "patent US12215389B2",
  "about": "“Compositions for detecting epigenetic modifications” (EXACT SCIENCES CORPORATION, priority 2007, dated 2025)",
  "test_system": "methylated gene promoters in fecal DNA",
  "assay": "Real-time MSP on stool (fecal) DNA",
  "parameters": "species or system human",
  "conditions": "fecal samples; for Sens adenoma: 13 samples; for Sens CRC: 15 samples; for Spec: 19 samples",
  "text": "A standardized multicenter screening trial (The Netherlands) was initiated in 2006. In this trial, non symptomatic subjects aged 50 or above are screened with colonoscopy, FOBT and real-time MSP using DNA from stool and blood. In addition, prospectively collected stool samples from multiple centers (Germany and The Netherlands) were used. In these trials, symptomatic patients, attending a Gastroenterology clinic and ultimately diagnosed with CRC, provided a stool sample for use in real-time MSP. From the ongoing trials 147 stool samples were available for the present study. 3 main categories of stool samples were used: 67 samples with no suspicious findings, 58 adenomas and 22 samples from patients covering all stages of CRC, with 90% representing early stage disease.\nAfter defecation in a special bucket, patients added 250 ml of stool homogenization buffer (Amresco, Solon, Ohio, USA) to the sample. Samples were shipped to the laboratory and further processed within 72 hours after defecation. Stool homogenization buffer was added to a ratio 1:7, and the samples were homogenized and aliquoted in portions of 32 ml.\nSingle aliquots (32 ml containing the equivalent of 4 g of stool) were centrifuged for 5 minutes at 2540 rcf at 20° C. The supernatant was retained and centrifuged a second time (10 minutes at 16500 rcf at 4° C.). 22 ml of the supernatant obtained following the second centrifugation step was incubated with 5 μl Rnase A for 60 minutes at 37° C. Total DNA was then SodiumAcetate (pH 5.2)-isopropanol precipitated and washed with 70% ethanol. The DNA was resuspended in 4 ml 1×TE (pH 7.4). 400 μl 10× buffer (240 mM EDTA (pH=8.0), 750 mM NaC), 400 μl 10% SDS, and 20 μl Proteinase K (20 mg/ml) was added and the samples were incubated at 48° C. overnight at constant shaking (225 RPM). After centrifugation (3000 RCF for 30 seconds at room temperature), 5 ml of Phenol:Chloroform:Isoamylalcohol (25:24:1, v/v:Invitrogen) was added and incubated for 10 minutes at room temperature shaking at 225 RPM and centrifuged for 5 minutes at 3000 RCF. The aqueous layer was transferred to a new tube containing 5 ml of Phenol:Chloroform:Isoamylalcohol. Again, the samples were incubated for 10 minutes at room temperature shaking at 225 RPM and centrifuged for 5 minutes at 3000 RCF at room temperature. The aqueous layer was transferred to a new tube and DNA was precipitated by adding 500 μl 7.5 M Ammonium Acetate, 5 μl glycogen and 10 ml of cold 100% Ethanol (−20° C.), further incubated at −20° C. for at least 1 hour and centrifuged at 15000 RCF for 30 minutes at 4° C. Pellets were washed with 3.5 ml freshly prepared 70% Ethanol and air dried. Pellets were finally resuspended in 2 ml of LoTE pH 8.0 and stored at −80° C., until further processing.\nAn upscaled DNA modification step was applied to 32 μg of the obtained DNA. 16 Aliquots of 2 μg of DNA were subjected to bisulfite modification in 96-wells format on a pipetting robot (Tecan), using the EZ-96DNA Methylation kit (Zymo Research), according to the manufacturer's protocol. Basically, aliquots of 45 μl were mixed with 5 μl of M-Dilution Buffer and incubated at 37° C. for 15 minutes shaking at 1100 rpm. Then 100 μl of the diluted CT Conversion Reagent was added and samples were incubated at 70° C. for 3 hours, shaking at 1100 rpm in the dark. After conversion, the samples were desalted by incubation on ice for 10 minutes and addition of 400 μl of M-Binding buffer. The samples were loaded on a Zymo-Spin I Column in a collection tube and after centrifugation washed with 200 μl of M-Wash Buffer. 200 μl of M-Desulphonation Buffer was put onto the column and incubated at room temperature for 15 minutes. After centrifugation of the columns, they were washed twice with 200 μl of M-Wash Buffer. Finally, the DNA was washed from the column in 50 μl Tris-HCl 1 mM pH8.0 and stored at −80° C., until further processing.",
  "data": [
    {"substance": "SFRP1 (DNA TGTAGTTTTCGGAGTTAGTGTCGCGC; listed as DNA, chemistry not given here)", "values": [
      {"measurement": "Sens adenoma", "result": 8, "unit": "%"},
      {"measurement": "Sens CRC", "result": 67, "unit": "%"},
      {"measurement": "Spec", "result": 100, "unit": "%"}
    ]},
    {"substance": "GATA5 (DNA AGTTCGTTTTTAGGTTAGTTTTCGGC; listed as DNA, chemistry not given here)", "values": [
      {"measurement": "Sens adenoma", "result": 0, "unit": "%"},
      {"measurement": "Sens CRC", "result": 27, "unit": "%"},
      {"measurement": "Spec", "result": 100, "unit": "%"}
    ]}
  ]
}
